This series deals with SOD1. Conditions: ASO.

Where “and” joins values, the source holds several entries; their conditions need not be identical. Equal values may be shown once. After the bases stand the sugars from the 5' end (letter, count) and the backbone: PS all phosphorothioate, else s phosphorothioate and o phosphodiester by linkage. Methylation of C is not given here. e = 2'-O-(2-methoxyethyl) (MOE); k = constrained ethyl (cEt); d = 2'-deoxy (DNA)

Regarding “TCTGCTTTTTCATGGAC (sugars e3 k2 d7 k2 e3, PS)”, where the note is “HepG2, 3 µM”, the target mRNA inhibition turned out to be 55%.
“AGACTACATCCAAGGGA (sugars e2 k2 d8 k2 e3, PS)” had a target mRNA inhibition (HepG2, 4 µM) of 53%.
“AATCAGTTTCTCACTAC (sugars e2 k2 d9 k2 e2, PS)” gave a target mRNA inhibition (HepG2, 5 µM) of 53%.
Sequence “GAATGTTTATTGGGCGA (sugars e2 k2 d9 k2 e2, PS)” registered a target mRNA inhibition (HepG2, 4 µM) of 65%.
“CCATTACTTTCCTTCTG (sugars e3 k2 d7 k2 e3, PS)” yielded a target mRNA inhibition (HepG2, 3 µM) of 37%.
For the sequence “TCTACAGCTAGCAGGAT (sugars e2 k2 d8 k2 e3, PS)”, the target mRNA inhibition by setting is: (HepG2, 0.1875 µM) 23%; (HepG2, 0.75 µM) 51%; (HepG2, 3 µM) 74%; (HepG2, 4 µM) 75%; (HepG2, 12 µM) 91%.
In the case of “AAATACAGGTCATTGAA (sugars e2 k2 d9 k2 e2, PS)”, the target mRNA inhibition (HepG2, 5 µM) was found to be 47%.
As to “CCATACAGGGTTTTTAT (sugars e3 k2 d7 k2 e3, PS)”, for the setting “HepG2, 3 µM”, the target mRNA inhibition was determined as 1%.
For the setting “HepG2, 5 µM”, “CTCATAATAAGTGCCAT (sugars e2 k2 d9 k2 e2, PS)” came in with a target mRNA inhibition of 44%.
Take “CTTCACTGGTCCATTAC (sugars e3 k2 d7 k2 e3, PS)”: for the setting “HepG2, 3 µM”, the target mRNA inhibition came out at 11%.
In turn, “TAAGTGCCATACAGGGTTTT (sugars e5 d10 e5, PS)” displayed a target mRNA inhibition (HepG2, 5 µM) of 13%.
As for “GATACATTTCTACAGCTAGC (sugars e5 d10 e5, PS)”, the target mRNA inhibition reads like this: (HepG2, 4 µM) 78%; (HepG2, 12 µM) 90%.
Regarding “CAGGGTTTTTATTCACA (sugars e3 k2 d7 k2 e3, PS)”, where the note is “HepG2, 3 µM”, the target mRNA inhibition worked out at 17%.
“TTTTAAGATTACAGTGTTTA (sugars e5 d10 e5, PS)”: the target mRNA inhibition (HepG2, 5 µM) is 13%.
Regarding “ACTACATCCAAGGGAAT (sugars e2 k2 d9 k2 e2, PS)”, under “HepG2, 4 µM”, the target mRNA inhibition turned out to be 48%.
“GAATGTTTATTGGGCGA (sugars e3 k2 d7 k2 e3, PS)” yielded a target mRNA inhibition (HepG2, 3 µM) of 14%.
Turning to “GTTTAATGTTTATCAG (sugars kekeddddddddekek, linkages s1 o3 s8 o1 s2)”, the target mRNA inhibition runs as follows: (A431, 0.12 µM) 7%; (A431, 0.6 µM) 7%; (A431, 3 µM) 41%; (A431, 15 µM) 66%; (HepG2, 0.222 µM) 58%; (HepG2, 0.667 µM) 78%. The sequence also came in with a target mRNA inhibition (HepG2, 2 µM) of 86% and a target mRNA inhibition (HepG2, 6 µM) of 94%.
In the case of “CAATTACACCACAAGCC (sugars e2 k2 d8 k2 e3, PS)”, for the setting “HepG2, 4 µM”, the target mRNA inhibition stood at 58%.
With “ATGTTTATCAGGATACA (sugars e3 k1 d8 k1 e4, linkages s1 o2 s9 o2 s2)”, the target mRNA inhibition reads like this: (A431, 0.062 µM) 7%; (A431, 0.185 µM) 18%; (A431, 0.556 µM) 38%; (A431, 1.667 µM) 53%; (A431, 5 µM) 68%; (A431, 15 µM) 79%. The target mRNA inhibition is, setting by setting: (SH-SY5Y, 0.062 µM) 4%; (SH-SY5Y, 0.185 µM) 30%; (SH-SY5Y, 0.556 µM) 51%; (SH-SY5Y, 1.667 µM) 68%; (SH-SY5Y, 5 µM) 88%; (SH-SY5Y, 15 µM) 92%.
For the sequence “CCCACCGTGTTTTCTGGATA (sugars e5 d10 e5, PS)”, the target mRNA inhibition (HepG2, 5 µM) was 46% and 40%.
The same measure, in the same setting: under “CATAATAAGTGCCATAC (sugars e2 k2 d8 k2 e3, PS)” stands 32%.
With “GATCCCAATTACACCAC (sugars e2 k2 d9 k2 e2, PS)”, the target mRNA inhibition (HepG2, 4 µM) came to 58%.
Regarding “CCGTCGCCCTTCAGCACGCA (sugars e5 d10 e5, linkages s1 o4 s10 o2 s2)”, the target mRNA inhibition (A431, 0.062 µM) was 12%; the target mRNA inhibition (A431, 0.185 µM) was found to be 13%; the target mRNA inhibition (A431, 0.556 µM) is 14%; the target mRNA inhibition (A431, 1.667 µM) came out at 4%; the target mRNA inhibition (A431, 5 µM) worked out at 18%; the target mRNA inhibition (A431, 15 µM) stood at 7%. For the same sequence, the target mRNA inhibition reads like this: (SH-SY5Y, 0.062 µM) 16%; (SH-SY5Y, 0.185 µM) 5%; (SH-SY5Y, 0.556 µM) 19%; (SH-SY5Y, 1.667 µM) 36%; (SH-SY5Y, 5 µM) 68%; (SH-SY5Y, 15 µM) 80%.
“TATCAGGATACATTTCTACA (sugars e5 d10 e5, PS)” registered a target mRNA inhibition (HepG2, 0.1875 µM) of 13%; a target mRNA inhibition (HepG2, 0.75 µM) of 16%; a target mRNA inhibition (HepG2, 3 µM) of 48%; a target mRNA inhibition (HepG2, 5 µM) of 58%; a target mRNA inhibition (HepG2, 12 µM) of 81%.
In turn, “TATACAAATCTTCCAAG (sugars e3 k2 d7 k2 e3, PS)” had a target mRNA inhibition (HepG2, 3 µM) of 11%.
Sequence “TGAACATGGAATCCATG (sugars e3 k2 d7 k2 e3, PS)” had a target mRNA inhibition (HepG2, 3 µM) of 2%.
For “TGTTTATTGGGCGATCC (sugars e3 k2 d7 k2 e3, PS)”, for the setting “HepG2, 3 µM”, the target mRNA inhibition was 21%.
Take “TTGGCCCACCGTGTTTTCTG (sugars e5 d10 e5, PS)”: the target mRNA inhibition (HepG2, 5 µM) was 35% and 26%.
With “GCGATCCCAATTACACC (sugars e2 k2 d8 k2 e3, PS)”, the target mRNA inhibition (HepG2, 4 µM) was found to be 31%.
For the sequence “AAAGTGAGGACCTGCAC (sugars e3 k2 d7 k2 e3, PS)”, the target mRNA inhibition (HepG2, 3 µM) was determined as 20%.
On to “ACCTGCACTGGTACAGCCTG (sugars e5 d10 e5, PS)”, for which the target mRNA inhibition (HepG2, 5 µM) was 46% and 48%.
Sequence “TCATAAATCAGTTTCTCACT (sugars e5 d10 e5, PS)” registered a target mRNA inhibition (HepG2, 5 µM) of 21%.
The same measure, in the same setting: the figure for “GTGATTTAAGTCTGGCA (sugars e2 k2 d8 k2 e3, PS)” is 54%; for “CAAGTGATCATAAATCA (sugars e2 k2 d8 k2 e3, PS)” it is 47%; for “CAAGTGATCATAAATCA (sugars e2 k2 d9 k2 e2, PS)” it is 29%.
With “CTCAGACTACATCCAAG (sugars e3 k2 d7 k2 e3, PS)”, the target mRNA inhibition runs as follows: (HepG2, 0.1875 µM) 42%; (HepG2, 0.75 µM) 72%; (HepG2, 3 µM) 76% and 88%; (HepG2, 12 µM) 90%.
Regarding “TCCATTACTTTCCTTCT (sugars e3 k2 d7 k2 e3, PS)”, where the note is “HepG2, 3 µM”, the target mRNA inhibition is 18%.
Still for that read-out and setting: the figure for “TCATTTCCACCTTTGCC (sugars e3 k2 d7 k2 e3, PS)” is 57%.
Take “AGGATAACAGATGAGTT (sugars e2 k2 d8 k2 e3, PS)”: the target mRNA inhibition by setting is: (HepG2, 0.1875 µM) 30%; (HepG2, 0.75 µM) 71%; (HepG2, 3 µM) 87%; (HepG2, 4 µM) 84%; (HepG2, 12 µM) 95%.
Under “HepG2, 5 µM”, “CCATCTGTGATTTAAGT (sugars e2 k2 d9 k2 e2, PS)” returned a target mRNA inhibition of 47%.
Consider “TGCTTTTTCATGGACCA (sugars e3 k2 d7 k2 e3, PS)”, for which, under “HepG2, 3 µM”, the target mRNA inhibition turned out to be 51%.
For the setting “HepG2, 5 µM”, “CTCACTACAGGTACTTT (sugars e2 k2 d9 k2 e2, PS)” registered a target mRNA inhibition of 54%.
As for “TAACTGAGTTTTATAAAACT (sugars e5 d10 e5, PS)”, the target mRNA inhibition (HepG2, 5 µM) came out at 0%.
As for “CCATAACTCGCTAGGCCACG (sugars e5 d10 e5, PS)”, under “HepG2, 4 µM”, the target mRNA inhibition is 22%.
In the case of “AGCCTCATAATAAGTGCCAT (sugars e5 d10 e5, PS)”, where the note is “HepG2, 5 µM”, the target mRNA inhibition was determined as 6%.
The same measure, in the same setting: under “TACAGGGTTTTTATTCA (sugars e2 k2 d9 k2 e2, PS)” stands 31%.
Consider “ACAAGTTTAATACCCAT (sugars e3 k2 d7 k2 e3, PS)”, for which the target mRNA inhibition (HepG2, 3 µM) came out at 23%.
For the sequence “ATTCACAGGCTTGAATG (sugars e2 k2 d9 k2 e2, PS)”, the target mRNA inhibition (HepG2, 5 µM) was 29%.
Same read-out and setting: the figure for “CAAGTTTAATACCCATC (sugars e2 k2 d8 k2 e3, PS)” is 52%.
“TACAGCTAGCAGGATAA (sugars e2 k2 d8 k2 e3, PS)”: the target mRNA inhibition reads like this: (HepG2, 0.1875 µM) 35%; (HepG2, 0.75 µM) 70%; (HepG2, 3 µM) 90%; (HepG2, 4 µM) 85% and 77%; (HepG2, 12 µM) 91% and 97%.
On to “GTTTAATGTTTATCAGG (sugars e2 k2 d8 k2 e3, PS)”, for which the target mRNA inhibition was 55% (HepG2, 0.1875 µM); 78% (HepG2, 0.75 µM); 87% (HepG2, 3 µM); 87% (HepG2, 5 µM); 93% (HepG2, 12 µM).
For the sequence “TTTCTACAGCTAGCAGG (sugars e2 k2 d9 k2 e2, PS)”, the target mRNA inhibition amounted to 26% (HepG2, 0.1875 µM); 68% (HepG2, 0.75 µM); 89% (HepG2, 3 µM); 84% (HepG2, 4 µM); 95% (HepG2, 12 µM).
For the sequence “ATACATTTCTACAGCTA (sugars e3 k2 d7 k2 e3, linkages s1 o2 s9 o2 s2)”, the target mRNA inhibition (A431, 0.12 µM) was 4%; the target mRNA inhibition (A431, 0.6 µM) stood at 13%; the target mRNA inhibition (A431, 3 µM) is 26%; the target mRNA inhibition (A431, 15 µM) was found to be 37%.
Turning to “CAGTGTTTAATGTTTAT (sugars e2 k2 d8 k2 e3, PS)”, the target mRNA inhibition reads like this: (HepG2, 0.1875 µM) 30%; (HepG2, 0.75 µM) 61%; (HepG2, 3 µM) 79%; (HepG2, 4 µM) 75%; (HepG2, 5 µM) 77%; (HepG2, 12 µM) 81% and 87%.
As for “TAACAGATGAGTTAAGG (sugars e2 k2 d8 k2 e3, PS)”, under “HepG2, 4 µM”, the target mRNA inhibition was found to be 68%.
Consider “TTAATGTTTATCAGGAT (sugars e2 k2 d9 k2 e2, linkages s1 o3 s9 o1 s2)”, for which the target mRNA inhibition by setting is: (A431, 0.12 µM) 12%; (A431, 0.6 µM) 48%; (A431, 3 µM) 54%; (A431, 15 µM) 72%.

For the origin of these results see the OligoGym collection.
